The record followed here is patent US20240308998A1, “PYRROLOPYRIDONE DERIVATIVES USEFUL IN THE TREATMENT OF CANCER” (Tay Therapeutics Limited, priority 2021, published 2024).

As a reminder, the IC50 is the concentration that inhibits the measured activity by half. Higher therefore signals a need for much substance.

Counter-ions that a name gives are not always drawn.

One data set deals with T1, BRD4 BD1 (Homo sapiens, UniProt O60885).
T1 construct: HEK293 cells were transfected using NanoLuc-BRD4-BD1 or NanoLuc-BRD4-BD2 fusion vectors; host or cells: HEK293
The experiment in a line: NanoBRET bromodomain assay, BRD4 BD1. As to conditions: HEK293 cells transfected with NanoLuc-BRD4-BD1. It is filed as cell-based. In a few lines: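 Transfected HEK293 cells expressing NanoLuc-BRD4-BD1 were incubated with 1x tracer and serially diluted compound for 2 h at 37 °C, then given Nano-Glo substrate plus extracellular NanoLuc inhibitor. Donor 450 nm and acceptor 610 nm emissions were converted to background-corrected mBU, and IC50 was derived by nonlinear regression.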

For the next data set, the target named is T2, BRD4 BD2 (Homo sapiens, UniProt O60885).
T2 construct: HEK293 cells were transfected using NanoLuc-BRD4-BD1 or NanoLuc-BRD4-BD2 fusion vectors; host or cells: HEK293
As to the kind of experiment: NanoBRET bromodomain assay, BRD4 BD2. It is filed as cell-based. The settings on record: for Fold selectivity BRD4 BD1/BD2: IC50 BD1/IC50 BD2; for IC50: NanoBRET, HEK293 cells transfected with NanoLuc-BRD4-BD2. In a few lines: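 HEK293 cells transfected with NanoLuc-BRD4-BD2 fusion for 20-24 h, then treated with compound plus 1x tracer for 2 h at 37° C. Donor 450 nm / acceptor 610 nm emissions converted to background-corrected mBU; IC50 by nonlinear regression; selectivity as IC50 BD1/IC50 BD2.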
A general note: Bioluminescence resonance energy transfer reports proximity on the nanometre scale.

A short description of data set [1]: Intrinsic clearance in mouse liver microsomes. It is filed as in vitro ADME. As to conditions: 1 uM, NADPH. The protocol: A 50 mM stock solution (in DMSO) was prepared for the compound. From the stock solution, a working solution of 0.5 mM was prepared by diluting the compound in DMSO. This concentration of working solution was prepared considering a final concentration of 1 uM with 0.1% DMSO. The compound (1 uL of working solution) was spiked in PBS with pH 7.4 (22 uL) at a concentration of 1 uM. Subsequently, 110 uL of 10 mM NADPH was added (as a co-factor). The sample was incubated at 37° C. for 15 min. Following this, pre-warmed mouse liver microsomes (27.5 uL; final protein conc. 0.5 mg/mL) were added. The samples were then incubated at 37° C. Aliquots of samples were withdrawn at 0, 5, 15, 30, 45 and 60 min. The reaction was stopped by using chilled acetonitrile containing internal standard. The samples were centrifuged and the supernatants analysed by LC-MS/MS. The percent compound remaining at each time point was calculated with respect to that of the 0 min sample. The data were then analysed to calculate half-life and intrinsic clearance (CLint). Note that control samples were run without NADPH and blank samples were prepared using DMSO without the test compound.
On the technique in general: Liver microsomes are vesicles of endoplasmic reticulum, rich in cytochrome P450 enzymes.

Another data set is described as follows: Mouse plasma stability. It is filed as in vitro ADME. The settings on record: 10 μM in mouse plasma, 37° C. The protocol: The stock solution of compound (10 or 50 mM) was prepared in DMSO. From the stock solution, a working solution of compound (500 uM) was prepared in DMSO (100%). To 735 μL of mouse plasma, 15 μL of working solution of compound was added—resulting in a final concentration of 10 μM (2% DMSO) for the compound. The sample was then incubated at 37° C. Aliquot was withdrawn at time-points—0, 15, 30, 60, 90 and 120 mins. The reaction was stopped by using chilled acetonitrile containing internal standard (IS). The samples were centrifuged and the supernatants analyzed using LC-MS/MS. The percent remaining of the compound at each time point was calculated with respect to the control sample (0 min time-point).

Data set [2] can be described thus: Intrinsic clearance in rat liver microsomes. It is filed as in vitro ADME. The settings on record: pH 7.4, NADPH, read-out: Rat Microsomal Stability T½. In a few lines: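 Compound at 1 uM (0.1% DMSO) in PBS pH 7.4 preincubated 15 min at 37° C with NADPH, then rat liver microsomes (0.5 mg/mL protein) added and incubated at 37° C. Samples at 0–60 min quenched in acetonitrile and analysed by LC-MS/MS; half-life derived from % remaining versus 0 min; no-NADPH controls run.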

For the compound `CCNC(=O)c1cc2c(-c3ccn(C)c(=O)c3Oc3c(C)cc(F)cc3C)cn(C)c(=O)c2[nH]1` [Comparative Example A, reference compound], the half-inhibitory concentration (IC50) against BRD4 BD1 was more than 1000 nM; on BRD4 BD2, 50 to 200 nM. Also, on BRD4 BD2, the “Fold selectivity BRD4 BD1/BD2” value was “xx (Fold >50 and ≤200)”. For the same compound, the “Mouse Microsomal Stability (intrinsic clearance)” value (“Mouse Microsomal Stability” below) in data set [1] is recorded as 0.9 ml/min/g liver. The “Mouse Plasma Stability % remaining at 120 minutes” value (from here on “Mouse Plasma Stability % remaining”) in “Mouse plasma stability” is reported as 7%.

For the compound `Cc1cc(F)cc(C)c1Oc1c(-c2cn(C)c(=O)c3[nH]c(C(=O)NC(C)(C)C)cc23)ccn(C)c1=O` [Comparative Example B, reference compound], the “Mouse Microsomal Stability” value in data set [1] is given as 5.1 ml/min/g liver. Moreover, the “Mouse Plasma Stability % remaining” value in the data set “Mouse plasma stability” was 100%.

At BRD4 BD1, `Cc1cnc(-c2cc3c(-c4cc(=O)n(C)cc4Oc4c(C)cccc4C)cn(C)c(=O)c3[nH]2)[nH]1` [Example 1, 4-(5-(2,6-dimethylphenoxy)-1-methyl-2-oxo-1,2-dihydropyridin-4-yl)-6-methyl-2-(5-methyl-1H-imidazol-2-yl)-1,6-dihydro-7H-pyrrolo [2,3-c] pyridin-7-one] showed an IC50 of more than 1000 nM. On BRD4 BD2, the “Fold selectivity BRD4 BD1/BD2” value is “xxx (Fold >200)” and the IC50 is not above 50 nM. The “Mouse Microsomal Stability” value in data set [1] is 0.7 ml/min/g liver. Moreover, the “Mouse Plasma Stability % remaining” value in “Mouse plasma stability” was determined as 95%.

As to `Cc1cccc(C)c1Oc1cn(C)c(=O)cc1-c1cn(C)c(=O)c2[nH]c(-c3ncc[nH]3)cc12` [Example 2, 4-(5-(2,6-dimethylphenoxy)-1-methyl-2-oxo-1,2-dihydropyridin-4-yl)-2-(1H-imidazol-2-yl)-6-methyl-1,6-dihydro-7H-pyrrolo [2,3-c] pyridin-7-one], the IC50 against BRD4 BD1 is more than 1000 nM. At BRD4 BD2, the “Fold selectivity BRD4 BD1/BD2” value is “xx (Fold >50 and ≤200)”; the IC50 was not above 50 nM. Moreover, in data set [1], the “Mouse Microsomal Stability” value stood at 0.9 ml/min/g liver. In addition, in “Mouse plasma stability”, the “Mouse Plasma Stability % remaining” value stood at 100%.

With `Cc1cccc(C)c1Oc1cn(C)c(=O)cc1-c1cn(C)c(=O)c2[nH]c(-c3ncc(C(F)(F)F)[nH]3)cc12` [Example 3, 4-(5-(2,6-dimethylphenoxy)-1-methyl-2-oxo-1,2-dihydropyridin-4-yl)-6-methyl-2-(5-(trifluoromethyl)-1H-imidazol-2-yl)-1,6-dihydro-7H-pyrrolo[2,3-c] pyridin-7-one], the IC50 against BRD4 BD1 is more than 1000 nM. At BRD4 BD2, the “Fold selectivity BRD4 BD1/BD2” value was “xxx (Fold >200)” and the IC50 was not above 50 nM. The “Mouse Microsomal Stability” value in data set [1] came out at 0.5 ml/min/g liver. The “Mouse Plasma Stability % remaining” value in the data set “Mouse plasma stability” is reported as 77%.

On to `Cc1cccc(C)c1Oc1cn(C)c(=O)cc1-c1cn(C)c(=O)c2[nH]c(C3=NCCN3)cc12` [Example 4, 2-(4,5-dihydro-1H-imidazol-2-yl)-4-(5-(2,6-dimethylphenoxy)-1-methyl-2-oxo-1,2-dihydropyridin-4-yl)-6-methyl-1,6-dihydro-7H-pyrrolo[2,3-c]pyridin-7-one], for which the IC50 against BRD4 BD1 was more than 1000 nM; at BRD4 BD2, 200 to 1000 nM. At BRD4 BD2, the “Fold selectivity BRD4 BD1/BD2” value is “x (Fold >2 and ≤50)”. Besides, the “Mouse Microsomal Stability” value in data set [1] is reported as 0.6 ml/min/g liver.

`Cc1cnc(-c2cc3c(-c4cc(=O)n(C)cc4-c4ccccc4)cn(C)c(=O)c3[nH]2)[nH]1` [Example 5, 6-methyl-2-(5-methyl-1H-imidazol-2-yl)-4-(1-methyl-2-oxo-5-phenyl-1,2-dihydropyridin-4-yl)-1,6-dihydro-7H-pyrrolo [2,3-c] pyridin-7-one]: the concentration for half-maximal inhibition (IC50) against BRD4 BD1 was more than 1000 nM; against BRD4 BD2 it was 50 to 200 nM. For the same compound, the “Fold selectivity BRD4 BD1/BD2” value at BRD4 BD2 is “xx (Fold >50 and ≤200)”. Besides, the “Mouse Microsomal Stability” value in data set [1] was determined as 0.6 ml/min/g liver.

As for `Cc1cc(-c2cc3c(-c4cc(=O)n(C)cc4Oc4c(C)cccc4C)cn(C)c(=O)c3[nH]2)cc(C)n1` [Example 17, 4-(5-(2,6-dimethylphenoxy)-1-methyl-2-oxo-1,2-dihydropyridin-4-yl)-2-(2,6-dimethylpyridin-4-yl)-6-methyl-1,6-dihydro-7H-pyrrolo[2,3-c] pyridin-7-one.TFA], the half-life at 1 uM in data set [2] is more than 1 h. Also, the IC50 against BRD4 BD1 was more than 1000 nM. At BRD4 BD2, the “Fold selectivity BRD4 BD1/BD2” value is listed as “xxx (Fold >200)” and the IC50 was not above 50 nM. Also, the “Mouse Plasma Stability % remaining” value in the data set “Mouse plasma stability” was found to be 42%.
